Reference: ChEMBL document CHEMBL2074004, “P-glycoprotein-dependent disposition kinetics of tacrolimus: studies in mdr1a knockout mice” (Pharm Res, 1999)

Tests used:
[1] = target: T1, ATP-dependent translocase ABCB1 (Mus musculus, UniProt P21447); assay: TP_TRANSPORTER: increase in brain concentration in mdr1a(-/-) mouse; assay type: functional, organism-based; details: in vivo
[2] = target: T1, ATP-dependent translocase ABCB1; assay: TP_TRANSPORTER: increase in blood concentration in mdr1a(-/-) mouse; assay type: functional, organism-based; details: in vivo

T1 sequence (P21447 whole entry): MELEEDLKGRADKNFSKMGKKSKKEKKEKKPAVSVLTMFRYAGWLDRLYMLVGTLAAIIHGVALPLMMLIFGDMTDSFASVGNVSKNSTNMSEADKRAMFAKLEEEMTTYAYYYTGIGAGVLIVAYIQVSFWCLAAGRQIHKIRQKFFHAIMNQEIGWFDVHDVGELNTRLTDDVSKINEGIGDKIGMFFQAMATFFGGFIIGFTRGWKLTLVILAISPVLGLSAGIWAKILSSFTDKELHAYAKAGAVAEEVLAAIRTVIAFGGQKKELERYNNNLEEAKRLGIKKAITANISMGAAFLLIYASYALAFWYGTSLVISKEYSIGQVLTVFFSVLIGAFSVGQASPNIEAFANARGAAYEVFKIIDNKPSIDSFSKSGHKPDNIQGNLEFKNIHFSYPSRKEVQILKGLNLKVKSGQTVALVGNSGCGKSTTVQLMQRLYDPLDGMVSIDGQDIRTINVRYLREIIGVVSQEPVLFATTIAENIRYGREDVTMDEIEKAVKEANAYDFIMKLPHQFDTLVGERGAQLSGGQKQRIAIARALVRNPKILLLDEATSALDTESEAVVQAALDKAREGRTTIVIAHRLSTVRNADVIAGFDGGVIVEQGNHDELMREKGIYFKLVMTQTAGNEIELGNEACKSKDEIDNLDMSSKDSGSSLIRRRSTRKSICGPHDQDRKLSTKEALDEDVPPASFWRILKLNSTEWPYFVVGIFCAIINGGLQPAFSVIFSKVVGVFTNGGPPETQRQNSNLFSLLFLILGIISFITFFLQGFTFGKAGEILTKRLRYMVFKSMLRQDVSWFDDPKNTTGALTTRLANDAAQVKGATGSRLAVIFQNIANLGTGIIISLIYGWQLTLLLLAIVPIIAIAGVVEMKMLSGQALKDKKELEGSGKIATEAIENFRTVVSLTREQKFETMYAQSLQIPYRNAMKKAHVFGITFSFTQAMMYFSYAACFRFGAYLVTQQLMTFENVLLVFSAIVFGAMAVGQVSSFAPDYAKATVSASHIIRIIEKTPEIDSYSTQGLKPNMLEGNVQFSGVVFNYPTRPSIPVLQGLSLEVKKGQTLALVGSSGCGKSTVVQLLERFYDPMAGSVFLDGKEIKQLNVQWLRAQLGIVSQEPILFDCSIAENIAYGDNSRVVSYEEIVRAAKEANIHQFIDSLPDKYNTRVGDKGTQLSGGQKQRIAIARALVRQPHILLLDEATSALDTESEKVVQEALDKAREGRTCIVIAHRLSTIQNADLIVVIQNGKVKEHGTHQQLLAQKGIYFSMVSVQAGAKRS

- Activity [1]: substrate [+]
- Activity [2]: substrate [+]
Structure (SMILES): C=CC[C@@H]1/C=C(\C)C[C@H](C)C[C@H](OC)[C@H]2O[C@@](O)(C(=O)C(=O)N3CCCC[C@H]3C(=O)O[C@H](/C(C)=C/[C@@H]3CC[C@@H](O)[C@H](OC)C3)[C@H](C)[C@@H](O)CC1=O)[C@H](C)C[C@@H]2OC [TACROLIMUS ANHYDROUS]
